The source made the active and inactive calls. The rule behind the calls is not given here.
Columns and labels:
[1] = tested on: A549; assay: cells; details: Homo sapiens, A549, read-out: GI
Description: Cytotoxicity against human A549 cells assessed as growth inhibition at 10 uM by MTT assay relative to control

[2] = tested on: MGC-803; assay: cells; details: Homo sapiens, MGC-803, read-out: GI
Description: Cytotoxicity against human MGC803 cells assessed as growth inhibition at 10 uM by MTT assay relative to control

[3] = tested on: PC-9; assay: cells; details: Homo sapiens, PC-9, read-out: GI
Description: Cytotoxicity against human PC9 cells assessed as growth inhibition at 10 uM by MTT assay relative to control

[4] = tested on: ECa-109 cell line; assay: cells; details: Homo sapiens, ECa-109, read-out: GI
Description: Cytotoxicity against human EC109 cells assessed as growth inhibition at 10 uM by MTT assay relative to control

[5] = biological target: Lysine-specific histone demethylase 1A (Homo sapiens, UniProt O60341)
Description: Inhibition of recombinant human LSD1 (157 to 852 residues) expressed in Escherichia coli BL21(DE3) using H3K4me2 as substrate preincubated for 1 hr followed by substrate addition by fluorescence assay

[6] = tested on: A549; assay: cells; details: Homo sapiens
Description: Cytotoxicity against human A549 cells assessed as growth inhibition by MTT assay

[7] = tested on: MGC-803; assay: cells; details: Homo sapiens
Description: Cytotoxicity against human MGC803 cells assessed as growth inhibition by MTT assay

[8] = tested on: ECa-109 cell line; assay: cells; details: Homo sapiens
Description: Cytotoxicity against human EC109 cells assessed as growth inhibition by MTT assay

[9] = tested on: PC-9; assay: cells; details: Homo sapiens
Description: Cytotoxicity against human PC9 cells assessed as growth inhibition by MTT assay

[10] = tested on: MGC-803; assay: Anti-migratory activity against human MGC803 cells at 10 uM after 24 hrs by Hoechst 33258 staining based transwell assay relative to control; assay type: functional; details: MGC-803, 24 h
[11] = tested on: PC-9; assay: Anti-migratory activity against human PC9 cells after 24 hrs by Hoechst 33258 staining based transwell assay; assay type: functional, cell-based
[12] = tested on: MGC-803; assay: Effect on N-cadherin expression in human MGC803 cells at 5 to 10 uM after 24 hrs by Western blot method; assay type: functional, cell-based
[13] = tested on: PC-9; assay: Increase in E-cadherin expression in human PC9 cells at 5 to 10 uM after 24 hrs by Western blot method; assay type: functional, cell-based
[14] = tested on: MGC-803; assay: Anti-migratory activity against human MGC803 cells after 24 hrs by Hoechst 33258 staining based transwell assay; assay type: functional, cell-based
[15] = tested on: MGC-803; assay: Effect on E-cadherin expression in human MGC803 cells at 5 to 10 uM after 24 hrs by Western blot method; assay type: functional, cell-based
[16] = tested on: PC-9; assay: Decrease in N-cadherin expression in human PC9 cells at 5 to 10 uM after 24 hrs by Western blot method; assay type: functional, cell-based
[17] = tested on: PC-9; assay: Potency index, ratio of 5-fluorouracil IC50 to compound IC50 for human PC9 cells; assay type: functional

Compound | inhibition of growth at 10 µM [1] [%] | inhibition of growth at 10 µM [2] [%] | inhibition of growth at 10 µM [3] [%] | inhibition of growth at 10 µM [4] [%] | IC50 [5] [µM] | IC50 [6] [µM] | IC50 [7] [µM] | IC50 [8] [µM] | IC50 [9] [µM] | inhibition at 10 µM [10] [%] | Activity [11] | Activity [12] | Activity [13] | Activity [14] | Activity [15] | Activity [16] | Ratio IC50 [17]
Cc1cc(Nc2ccc(F)cc2)n2nc(SCc3ccccc3)nc2n1 | 41.8 | 19.7 | 43.5 | 37.6 | > 10 | – | – | – | – | – | – | – | – | – | – | – | –
Cc1cc(N2CCOCC2)n2nc(SCc3ccccc3)nc2n1 | 45.4 | 31 | 27.3 | 10.6 | > 10 | – | – | – | – | – | – | – | – | – | – | – | –
Cc1ccc(Nc2cc(C)nc3nc(SCc4ccccc4)nn23)cc1 | 33.7 | 26 | 30.2 | 44.7 | > 10 | – | – | – | – | – | – | – | – | – | – | – | –
O=c1[nH]cc(F)c(=O)[nH]1 [FLUOROURACIL] | – | – | – | – | – | 14 | 10.1 | 26 | 1.99 | – | – | – | – | – | – | – | –
Cc1cc(NNC(N)=S)n2nc(SCc3ccccc3)nc2n1 | 25.6 | 2.1 | 30.7 | 14.2 | 0.154 | – | – | – | – | 21 | Dose-dependent effect | inactive | Active | Dose-dependent effect | inactive | Active | –
Cc1cc(Nc2ccccc2)n2nc(SCc3nc4ccccc4[nH]3)nc2n1 | 38 | 17.9 | 31.6 | 39.9 | > 10 | – | – | – | – | – | – | – | – | – | – | – | –
Cc1cc(Nc2ccc(Cl)cc2)n2nc(SCc3nc4ccccc4[nH]3)nc2n1 | 34.9 | 16.8 | 33.2 | 41.2 | > 10 | – | – | – | – | – | – | – | – | – | – | – | –
O=C(O)c1ccc(CN2CCC(CN[C@@H]3C[C@H]3c3ccccc3)CC2)cc1 [GSK2879552] | – | – | – | – | 0.024 | – | > 50 | > 50 | – | – | – | – | – | – | – | – | –
Cc1cc(Nc2ccc(C#N)cc2)n2nc(SCc3nc4ccccc4[nH]3)nc2n1 | 52.3 | 19.3 | 41.9 | 26.3 | > 10 | 13.9 | – | – | – | – | – | – | – | – | – | – | –
COc1cc(Nc2cc(C)nc3nc(SCc4nc5ccccc5[nH]4)nn23)cc(OC)c1OC | 52.4 | 28 | 42.9 | 34.1 | > 10 | 18 | – | – | – | – | – | – | – | – | – | – | –
Cc1cc(Nc2ccccc2)n2nc(SCc3ccccc3)nc2n1 | 50.2 | 35 | 40.2 | 12.9 | > 10 | 16.4 | – | – | – | – | – | – | – | – | – | – | –
Cc1cc(Nc2ccc(C(=O)O)cc2)n2nc(SCc3nc4ccccc4[nH]3)nc2n1 | 5.6 | 0.4 | 11.9 | 4.5 | > 10 | – | – | – | – | – | – | – | – | – | – | – | –
Cc1cc(Nc2ccc(C(=O)/C=C/c3cccs3)cc2)n2nc(SCc3nc4ccccc4[nH]3)nc2n1 | 51.1 | 29.6 | 40.4 | 38.3 | > 10 | 9.9 | 7.88 | 10.6 | 11 | – | – | – | – | – | – | – | –
Cc1cc(N)n2nc(SCc3ccccc3)nc2n1 | 57.3 | 32.3 | 48.3 | 4.7 | > 10 | 9.74 | – | – | 8.14 | – | – | – | – | – | – | – | –
Cc1cc(Nc2ccc(Br)cc2)n2nc(SCc3nc4ccccc4[nH]3)nc2n1 | 35.2 | 36.7 | 36.4 | 43.8 | > 10 | – | – | – | – | – | – | – | – | – | – | – | –
Cc1cc(NCCc2c[nH]c3ccccc23)n2nc(SCc3ccccc3)nc2n1 | 43.9 | 34.2 | 24 | 7 | > 10 | – | – | – | – | – | – | – | – | – | – | – | –

Compound | inhibition of growth at 10 µM [1] [%] | inhibition of growth at 10 µM [2] [%] | inhibition of growth at 10 µM [3] [%] | inhibition of growth at 10 µM [4] [%] | IC50 [5] [µM] | IC50 [6] [µM] | IC50 [7] [µM] | IC50 [8] [µM] | IC50 [9] [µM] | inhibition at 10 µM [10] [%] | Activity [11] | Activity [12] | Activity [13] | Activity [14] | Activity [15] | Activity [16] | Ratio IC50 [17]
Cc1cc(NCCCN2CCOCC2)n2nc(SCc3ccccc3)nc2n1 | 49.2 | 24.9 | 51.9 | 9.3 | > 10 | 17 | – | – | 15 | – | – | – | – | – | – | – | –
Cc1ccc(Nc2cc(C)nc3nc(SCc4nc5ccccc5[nH]4)nn23)cc1 | 35.1 | 22.9 | 36.9 | 43.1 | > 10 | – | – | – | – | – | – | – | – | – | – | – | –
Cc1cc(Nc2ccc(C(=O)O)cc2)n2nc(SCc3ccccc3)nc2n1 | 34.6 | 26.7 | 30.7 | 14.3 | > 10 | – | – | – | – | – | – | – | – | – | – | – | –
Cc1cc(NNC(=O)c2cnccn2)n2nc(SCc3nc4ccccc4[nH]3)nc2n1 | 65.2 | 8.6 | 52.5 | 35.5 | 0.557 | 10.3 | – | – | 12.3 | – | – | – | – | – | – | – | –
Cc1cc(NCCCO)n2nc(SCc3ccccc3)nc2n1 | 53.7 | 33.3 | 51.4 | 6.3 | > 10 | 8.85 | – | – | 10.7 | – | – | – | – | – | – | – | –
COc1cc(/C=C/C(=O)c2ccc(Nc3cc(C)nc4nc(SCc5nc6ccccc6[nH]5)nn34)cc2)cc(OC)c1OC | 71.6 | 81.3 | 93.1 | 76.4 | > 10 | 8.79 | 2.46 | 3.23 | 0.57 | – | – | – | – | – | – | – | 4
COc1cc(Nc2cc(C)nc3nc(SCc4ccccc4)nn23)cc(OC)c1OC | 37.9 | 32.8 | 13.5 | 41.6 | > 10 | – | – | – | – | – | – | – | – | – | – | – | –
Cc1cc(Nc2ccc(F)cc2)n2nc(SCc3nc4ccccc4[nH]3)nc2n1 | 36.6 | 19.2 | 27.6 | 39.7 | > 10 | – | – | – | – | – | – | – | – | – | – | – | –
Cc1cc(OCCN2CCCC2)n2nc(SCc3ccccc3)nc2n1 | 49.8 | 28.8 | 43.6 | 11.4 | > 10 | 22.8 | – | – | – | – | – | – | – | – | – | – | –
Cc1cc(N2CCC(N3CCCCC3)CC2)n2nc(SCc3ccccc3)nc2n1 | 56.5 | 32.8 | 35.6 | 0.3 | > 10 | 8.87 | – | – | – | – | – | – | – | – | – | – | –
Cc1cc(N2CCNCC2)n2nc(SCc3ccccc3)nc2n1 | 41.4 | 32.4 | 29.3 | 23.9 | > 10 | – | – | – | – | – | – | – | – | – | – | – | –
Cc1cc(NNC(=O)c2cnccn2)n2nc(SCc3ccccc3)nc2n1 | 40.9 | 35.3 | 63.2 | 23.3 | 1.19 | – | – | – | 12.7 | – | – | – | – | – | – | – | –
Cc1cc(NCCCn2ccnc2)n2nc(SCc3ccccc3)nc2n1 | 50.2 | 26.2 | 47.7 | 12.8 | > 10 | 16.1 | – | – | 12.3 | – | – | – | – | – | – | – | –
Cc1cc(Nc2cccc3c2CN(C2CCC(=O)NC2=O)C3=O)n2nc(SCc3nc4ccccc4[nH]3)nc2n1 (stereo not drawn) | 48.2 | 11.4 | 52.4 | 32.2 | > 10 | 19.8 | – | – | 15 | – | – | – | – | – | – | – | –
CCC1(c2ccc(Nc3cc(C)nc4nc(SCc5nc6ccccc6[nH]5)nn34)cc2)CCC(=O)NC1=O (stereo not drawn) | 49.2 | 1.1 | 47.9 | 38.2 | > 10 | 17.5 | – | – | 12.2 | – | – | – | – | – | – | – | –
Cc1cc(N2CCN(CCO)CC2)n2nc(SCc3ccccc3)nc2n1 | 42.1 | 23.8 | 14.9 | 5.9 | > 10 | – | – | – | – | – | – | – | – | – | – | – | –
